This note sets out measurements from patent publication US10377753B2, “Substituted 4-azaindoles and their use as GluN2B receptor modulators” (Janssen Pharmaceutica NV, priority 2015, dated 2019).

Counter-ions that a name gives are not always drawn.

The IC50 is the point on the concentration scale where inhibition reaches its midpoint.

The target of this test is cloned human NR1/NR2B ion channels (Homo sapiens (Human), UniProt Q05586+Q13224). Kind of test: HNR2BC: effects of test articles on cloned human NR1/NR2B ion channels expressed in mammalian cells (FLIPR calcium flux). Format: cell-based. The following applies: Table 5. A digest of the protocol:
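Compounds were added to dye-loaded cells for 5 min with fluorescence monitored for agonism, followed by co-agonists (glutamate ~EC80, glycine 10 μM saturating) for 5 min. Cells stably expressed inducible human NR1/NR2B, and the buffer was pH 7.4. The FLIPR Ca2+ flux signal was normalized against control wells.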
(Calcium assays in cells follow changes in intracellular calcium, usually with a dye or a luminescent sensor.)

Where [1] appears, read: cloned human NR1/NR2B ion channels.

Chain of cloned human NR1/NR2B ion channels (Q13224 27-1484, other chains not shown): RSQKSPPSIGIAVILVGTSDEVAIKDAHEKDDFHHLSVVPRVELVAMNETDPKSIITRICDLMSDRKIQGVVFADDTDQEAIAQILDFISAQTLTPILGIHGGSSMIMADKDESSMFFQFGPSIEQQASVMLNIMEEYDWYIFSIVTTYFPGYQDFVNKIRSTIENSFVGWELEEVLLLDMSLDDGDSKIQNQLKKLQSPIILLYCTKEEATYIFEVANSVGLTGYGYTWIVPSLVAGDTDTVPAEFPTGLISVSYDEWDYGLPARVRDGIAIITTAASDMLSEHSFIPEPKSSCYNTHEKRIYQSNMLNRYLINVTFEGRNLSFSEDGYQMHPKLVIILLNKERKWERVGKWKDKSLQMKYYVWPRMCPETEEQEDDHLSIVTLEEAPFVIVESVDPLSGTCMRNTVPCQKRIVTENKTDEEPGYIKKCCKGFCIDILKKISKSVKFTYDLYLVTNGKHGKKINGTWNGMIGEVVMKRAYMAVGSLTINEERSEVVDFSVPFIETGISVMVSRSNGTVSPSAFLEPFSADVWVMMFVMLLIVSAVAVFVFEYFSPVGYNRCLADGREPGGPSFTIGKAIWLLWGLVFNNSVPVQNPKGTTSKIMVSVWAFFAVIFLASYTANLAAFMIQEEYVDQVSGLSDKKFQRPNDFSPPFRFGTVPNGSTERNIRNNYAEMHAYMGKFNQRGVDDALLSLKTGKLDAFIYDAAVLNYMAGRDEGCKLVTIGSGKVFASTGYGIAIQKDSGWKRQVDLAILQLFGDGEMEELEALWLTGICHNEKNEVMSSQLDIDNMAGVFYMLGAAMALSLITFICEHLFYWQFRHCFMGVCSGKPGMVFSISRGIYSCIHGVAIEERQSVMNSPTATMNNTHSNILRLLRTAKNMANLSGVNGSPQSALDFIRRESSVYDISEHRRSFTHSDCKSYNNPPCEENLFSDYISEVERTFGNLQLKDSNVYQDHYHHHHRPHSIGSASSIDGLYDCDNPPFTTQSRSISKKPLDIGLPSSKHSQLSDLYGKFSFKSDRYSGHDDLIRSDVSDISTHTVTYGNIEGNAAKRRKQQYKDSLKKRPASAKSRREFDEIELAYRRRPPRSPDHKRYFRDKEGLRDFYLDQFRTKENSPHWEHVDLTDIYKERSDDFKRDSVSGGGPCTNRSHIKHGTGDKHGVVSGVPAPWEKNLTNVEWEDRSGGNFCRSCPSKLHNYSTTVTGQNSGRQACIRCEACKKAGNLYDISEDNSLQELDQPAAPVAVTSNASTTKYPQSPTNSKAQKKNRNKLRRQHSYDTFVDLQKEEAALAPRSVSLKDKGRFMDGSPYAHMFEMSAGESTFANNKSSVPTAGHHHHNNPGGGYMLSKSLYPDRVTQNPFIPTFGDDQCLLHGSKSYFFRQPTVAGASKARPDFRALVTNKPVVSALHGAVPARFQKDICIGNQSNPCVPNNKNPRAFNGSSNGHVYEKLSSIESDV

For `CCc1ccc(-c2cnc3c(F)cn(CC(=O)N(C)C)c3c2)s1` [Example 393, 2-[6-(5-Ethyl-2-thienyl)-3-fluoro-pyrrolo[3,2-b]pyridin-1-yl]-N,N-dimethyl-acetamide], the half-inhibitory concentration (IC50) under setting [1] is 126 nM. Still for that read-out and setting: the same measure for `CCN(C)C(=O)Cn1cc(C)c2ncc(-c3cccc(C(F)(F)F)c3F)cc21` [Example 587, N-Ethyl-2-[6-[2-fluoro-3-(trifluoromethyl)phenyl]-3-methyl-pyrrolo[3,2-b]pyridin-1-yl]-N-methyl-acetamide]: 251 nM.

As for `O=C(Cn1cc(Cl)c2ncc(-c3cccc(C(F)(F)F)n3)cc21)NC1CC1` [Example 246, 2-[3-Chloro-6-[6-(trifluoromethyl)-2-pyridyl]pyrrolo[3,2-b]pyridin-1-yl]-N-cyclopropyl-acetamide], the half-inhibitory concentration (IC50) (cloned human NR1/NR2B) is 100 nM. The same measure, in the same setting: the figure for `Cc1cc(-c2cnc3ccn(CC(=O)N4CCOCC4C)c3c2)ccc1F` (racemic) [Example 210, (R/S)-2-[6-(4-Fluoro-3-methyl-phenyl)pyrrolo[3,2-b]pyridin-1-yl]-1-(3-methylmorpholin-4-yl)ethanone trifluoroacetate salt] is 398 nM. Consider `CN(C)C(=O)Cn1ccc2ncc(-c3cccc(F)c3)cc21` [Example 450, 2-[6-(3-Fluorophenyl)pyrrolo[3,2-b]pyridin-1-yl]-N,N-dimethyl-acetamide], for which the concentration for half-maximal inhibition (IC50) under setting [1] was 39.8 nM.

Take `O=C(Cn1ccc2ncc(-c3ccc(F)cc3)cc21)NCc1ccccc1` [Example 251, N-Benzyl-2-[6-(4-fluorophenyl)pyrrolo[3,2-b]pyridin-1-yl]acetamide]: the concentration for half-maximal inhibition (IC50) (cloned human NR1/NR2B) was 50.1 nM. In the case of `CN(C)C(=O)Cn1cc(F)c2ncc(-c3cc(F)c(F)c(F)c3)cc21` [Example 94, 2-[3-Fluoro-6-(3,4,5-trifluorophenyl)pyrrolo[3,2-b]pyridin-1-yl]-N,N-dimethyl-acetamide], the IC50 (cloned human NR1/NR2B) was 63.1 nM.

Regarding `O=C(Cn1cc(F)c2ncc(-c3ccc(F)cc3)cc21)N1CCCC1` [Example 314, 2-[3-Fluoro-6-(4-fluorophenyl)pyrrolo[3,2-b]pyridin-1-yl]-1-pyrrolidin-1-yl-ethanone], the concentration for half-maximal inhibition (IC50) (cloned human NR1/NR2B) was 63.1 nM. Consider `COC1CN(C(=O)Cn2ccc3ncc(-c4ccc(F)c(C)c4)cc32)C1` [Example 290, 2-[6-(4-Fluoro-3-methyl-phenyl)pyrrolo[3,2-b]pyridin-1-yl]-1-(3-methoxyazetidin-1-yl)ethanone], for which, for the setting “cloned human NR1/NR2B”, the concentration for half-maximal inhibition (IC50) is 631 nM. `CN(C)C(=O)Cn1ccc2ncc(-c3ccc(F)cc3)cc21` [Example 430, 2-[6-(4-Fluorophenyl)pyrrolo[3,2-b]pyridin-1-yl]-N,N-dimethyl-acetamide]: the IC50 under setting [1] was 63.1 nM. Same read-out and setting: the same measure for `CN(C)C(=O)Cn1cc(Cl)c2ncc(-c3ccccc3F)cc21` [Example 512, 2-[3-Chloro-6-(2-fluorophenyl)pyrrolo[3,2-b]pyridin-1-yl]-N,N-dimethyl-acetamide]: 316 nM; for `Cc1cn(CC(=O)N2CC(F)C2)c2cc(-c3cc(F)c(F)c(F)c3)cnc12` [Example 598, 1-(3-Fluoroazetidin-1-yl)-2-[3-methyl-6-(3,4,5-trifluorophenyl)pyrrolo[3,2-b]pyridin-1-yl]ethanone]: 39.8 nM. Same read-out and setting: the same measure for `O=C(Cn1ccc2ncc(-c3ccc(Cl)s3)cc21)N1CCC1` [Example 373, 1-(Azetidin-1-yl)-2-[6-(5-chloro-2-thienyl)pyrrolo[3,2-b]pyridin-1-yl]ethanone]: 20 nM. In the case of `CCc1cccc(-c2cnc3ccn(CC(=O)N4CC(F)(F)C4)c3c2)c1` [Example 258, 1-(3,3-Difluoroazetidin-1-yl)-2-[6-(3-ethylphenyl)pyrrolo[3,2-b]pyridin-1-yl]ethanone trifluoroacetate salt], the IC50 (cloned human NR1/NR2B) is 200 nM. Take `CCN(C)C(=O)Cn1ccc2ncc(-c3cccc(C)c3)cc21` [Example 459, N-Ethyl-N-methyl-2-[6-(m-tolyl)pyrrolo[3,2-b]pyridin-1-yl]acetamide]: the IC50 under setting [1] is 39.8 nM. `O=C(Cn1ccc2ncc(-c3ccccc3)cc21)C1CC1` [Example 220, 1-Cyclopropyl-2-(6-phenylpyrrolo[3,2-b]pyridin-1-yl)ethanone]: the IC50 (cloned human NR1/NR2B) is 50.1 nM. With `CN(C)C(=O)Cn1cc(C(F)(F)F)c2ncc(-c3cc(F)cc(F)c3)cc21` [Example 611, 2-[6-(3,5-Difluorophenyl)-3-(trifluoromethyl)pyrrolo[3,2-b]pyridin-1-yl]-N,N-dimethyl-acetamide], the half-inhibitory concentration (IC50) under setting [1] was 10 nM. `Cc1cccc(-c2cnc3c(F)cn(CC(=O)N4CC(F)C4)c3c2)c1` [Example 607, 1-(3-Fluoroazetidin-1-yl)-2-[3-fluoro-6-(m-tolyl)pyrrolo[3,2-b]pyridin-1-yl]ethanone]: the IC50 under setting [1] was 39.8 nM. Turning to `CCCCn1ccc2ncc(-c3ccc(F)c(C)c3)cc21` [Example 170, 1-Butyl-6-(4-fluoro-3-methyl-phenyl)pyrrolo[3,2-b]pyridine trifluoroacetate salt], the IC50 (cloned human NR1/NR2B) is 316 nM. On to `CN(C)C(=O)Cn1ccc2ncc(-c3cc(Cl)cs3)cc21` [Example 391, 2-[6-(4-Chloro-2-thienyl)pyrrolo[3,2-b]pyridin-1-yl]-N,N-dimethyl-acetamide trifluoroacetate salt], for which the IC50 under setting [1] was 50.1 nM. In the case of `Cc1csc(-c2cnc3c(F)cn(CC(=O)N4CCC4)c3c2)c1` [Example 322, 1-(Azetidin-1-yl)-2-[3-fluoro-6-(4-methyl-2-thienyl)pyrrolo[3,2-b]pyridin-1-yl]ethanone], for the setting “cloned human NR1/NR2B”, the IC50 is 20 nM.

With `Cc1cc(-c2cnc3ccn(CC(=O)N4CCCC(C(F)(F)F)C4)c3c2)ccc1F` (racemic) [Example 195, (R/S)-2-[6-(4-Fluoro-3-methyl-phenyl)pyrrolo[3,2-b]pyridin-1-yl]-1-[3-(trifluoromethyl)-1-piperidyl]ethanone trifluoroacetate salt], the 50% inhibitory concentration (IC50) (cloned human NR1/NR2B) is 398 nM. On the same count and under the same terms, the same measure for `O=C(Cn1ccc2ncc(-c3ccc(Cl)c(Cl)c3)cc21)N1CCC1` [Example 357, 1-(Azetidin-1-yl)-2-[6-(3,4-dichlorophenyl)pyrrolo[3,2-b]pyridin-1-yl]ethanone trifluoroacetate salt]: 20 nM. Regarding `Cc1c(F)ccc(-c2cnc3ccn(CC(=O)N(C)C)c3c2)c1F` [Example 447, 2-[6-(2,4-Difluoro-3-methyl-phenyl)pyrrolo[3,2-b]pyridin-1-yl]-N,N-dimethyl-acetamide], the IC50 under setting [1] is 20 nM. Turning to `Cc1c(-c2cnc3ccn(CC(=O)NC4CC4)c3c2)cccc1C(F)(F)F` [Example 157, N-Cyclopropyl-2-[6-[2-methyl-3-(trifluoromethyl)phenyl]pyrrolo[3,2-b]pyridin-1-yl]acetamide trifluoroacetate salt], the 50% inhibitory concentration (IC50) (cloned human NR1/NR2B) was 251 nM. Turning to `Cc1cccc(-c2cnc3c(Cl)cn(CC(=O)N(C)C)c3c2)c1F` [Example 513, 2-[3-Chloro-6-(2-fluoro-3-methyl-phenyl)pyrrolo[3,2-b]pyridin-1-yl]-N,N-dimethyl-acetamide], the IC50 under setting [1] was 50.1 nM. `Cc1cc(-c2cnc3ccn(Cc4cn(C)nn4)c3c2)ccc1F` [Example 238, 6-(4-Fluoro-3-methyl-phenyl)-1-[(1-methyltriazol-4-yl)methyl]pyrrolo[3,2-b]pyridine]: the half-inhibitory concentration (IC50) (cloned human NR1/NR2B) was 3160 nM. Still for that read-out and setting: the figure for `O=C(Cn1ccc2ncc(-c3cc(F)cc(F)c3)cc21)NC1CC1` [Example 350, N-Cyclopropyl-2-[6-(3,5-difluorophenyl)pyrrolo[3,2-b]pyridin-1-yl]acetamide trifluoroacetate salt] is 15.8 nM; for `Cc1cc(-c2cnc3ccn(CC(C)(O)C4CC4)c3c2)ccc1F` (racemic) [Example 275, (R/S)-2-Cyclopropyl-1-[6-(4-fluoro-3-methyl-phenyl)pyrrolo[3,2-b]pyridin-1-yl]propan-2-ol trifluoroacetate salt] it is 158 nM; for `O=C(Cn1ccc2ncc(-c3cccc(F)c3)cc21)C1CC1` [Example 221, 1-Cyclopropyl-2-[6-(3-fluorophenyl)pyrrolo[3,2-b]pyridin-1-yl]ethanone] it is 79.4 nM. `Cc1sc(C)c(-c2cnc3ccn(CC(=O)N(C)C)c3c2)c1C` [Example 428, N,N-Dimethyl-2-[6-(2,4,5-trimethyl-3-thienyl)pyrrolo[3,2-b]pyridin-1-yl]acetamide]: under setting [1], the IC50 is 100 nM. With `Cc1cc(-c2cnc3c(Cl)cn(CC(=O)N4CCC4)c3c2)ccc1F` [Example 360, 1-(Azetidin-1-yl)-2-[3-chloro-6-(4-fluoro-3-methyl-phenyl)pyrrolo[3,2-b]pyridin-1-yl]ethanone], the IC50 (cloned human NR1/NR2B) is 31.6 nM. Same read-out and setting: the same measure for `Cc1cc(-c2cnc3ccn(Cc4cccnc4)c3c2)ccc1F` [Example 172, 6-(4-Fluoro-3-methyl-phenyl)-1-(3-pyridylmethyl)pyrrolo[3,2-b]pyridine trifluoroacetate salt]: 794 nM.

Turning to `CCc1ccc(-c2cnc3c(Cl)cn(CC(=O)N(C)C)c3c2)s1` [Example 421, 2-[3-Chloro-6-(5-ethyl-2-thienyl)pyrrolo[3,2-b]pyridin-1-yl]-N,N-dimethyl-acetamide], the IC50 under setting [1] was 631 nM. `Cc1cc(-c2cnc3c(Cl)cn(CC(=O)N4CC(F)(F)C4)c3c2)ccc1F` [Example 25, 2-[3-Chloro-6-(4-fluoro-3-methyl-phenyl)pyrrolo[3,2-b]pyridin-1-yl]-1-(3,3-difluoroazetidin-1-yl)ethanone]: the IC50 (cloned human NR1/NR2B) is 79.4 nM. Still for that read-out and setting: the same measure for `O=C(Cn1ccc2ncc(-c3ccnc(C(F)(F)F)c3)cc21)N1CCC1` [Example 109, 1-(Azetidin-1-yl)-2-[6-[2-(trifluoromethyl)-4-pyridyl]pyrrolo[3,2-b]pyridin-1-yl]ethanone]: 158 nM; for `O=C(Cn1ccc2ncc(-c3ccccc3F)cc21)N1CCOCC1` [Example 86, 2-[6-(2-Fluorophenyl)pyrrolo[3,2-b]pyridin-1-yl]-1-morpholino-ethanone]: 501 nM; for `Cc1c(F)ccc(-c2cnc3c(F)cn(CC(=O)N4CC(F)(F)C4)c3c2)c1F` [Example 271, 1-(3,3-Difluoroazetidin-1-yl)-2-[6-(2,4-difluoro-3-methyl-phenyl)-3-fluoro-pyrrolo[3,2-b]pyridin-1-yl]ethanone]: 79.4 nM.
